Source: ChEMBL document CHEMBL4118173, “Discovery of benzimidazole derivatives as orally active renin inhibitors: Optimization of 3,5-disubstituted piperidine to improve pharmacokinetic profile” (Bioorg Med Chem, 2018)
Numbering of substitutions follows the chain as printed. Calls of active or inactive are those of the source. No cut-off for these calls is given here.

How the values were obtained:
in vivo [1] = conditions: rat, iv
Description: Clearance in rat at 0.1 mg/kg, iv or 1 mg/kg, po administered as cassette dose by LC-MS/MS analysis

Renin [2] = biological target: T1, Renin (Homo sapiens, UniProt P00797)
T1 sequence (P00797 whole entry): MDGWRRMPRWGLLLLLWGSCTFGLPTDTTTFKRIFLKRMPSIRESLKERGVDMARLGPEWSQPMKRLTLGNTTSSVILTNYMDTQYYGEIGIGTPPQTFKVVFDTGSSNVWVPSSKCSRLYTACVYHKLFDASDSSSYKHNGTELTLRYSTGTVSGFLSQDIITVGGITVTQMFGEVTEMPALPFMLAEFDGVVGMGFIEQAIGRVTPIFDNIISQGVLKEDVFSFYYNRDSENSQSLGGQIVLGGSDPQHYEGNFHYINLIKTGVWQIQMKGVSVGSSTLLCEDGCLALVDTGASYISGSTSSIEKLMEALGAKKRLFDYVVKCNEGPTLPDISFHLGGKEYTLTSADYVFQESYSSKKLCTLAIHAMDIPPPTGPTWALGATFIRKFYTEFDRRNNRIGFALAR
Description: Inhibition of recombinant human renin using angiotensinogen as substrate pretreated for 10 mins followed by substrate addition measured after 30 mins in presence of human serum albumin by ELISA

Renin [3] = biological target: T1, Renin; remark: listed apart in the source
Description: Inhibition of renin in human plasma by radioimmunoassay

in vivo [4] = conditions: rat, po, 1 mg/kg
Renin [5] = biological target: T1, Renin; remark: listed apart in the source
Description: Inhibition of recombinant human renin using angiotensinogen as substrate pretreated for 10 mins followed by substrate addition measured after 30 mins in absence of human serum albumin by ELISA

physchem = conditions: 1-octanol/aqueous buffer, pH 7.4
Description: 1-octanol/aqueous buffer partition coefficient, log D of the compound at pH 7.4 by UV-vis/HPLC method

in vitro = conditions: PAMPA, pH 7.4
Description: Permeability of the compound at pH 7.4 buffer after 3 hrs by PAMPA

in vivo [6] = conditions: rat, iv, 0.1 mg/kg
in vivo [7] = conditions: rat, po, 1 mg/kg; remark: listed apart in the source
Rattus norvegicus [8] = experiment: Metabolic stability in rat at 0.1 mg/kg, iv or 1 mg/kg, po administered as cassette dose by LC-MS/MS analysis; format: ADME, organism-based; conditions: in vivo
Rattus norvegicus [9] = organism: Rattus norvegicus; conditions: in vivo, po, 1 mg/kg
[10] = AUC in cynomolgus monkey at 1 mg/kg, po administered as cassette dose by LC-MS/MS analysis; format: ADME, organism-based, Macaca fascicularis; conditions: in vivo
Cynomolgus monkey [11] = experiment: In vivo inhibition of plasma renin in po dosed cynomolgus monkey measured at 4 and 24 hrs post dose by radioimmunoassay; format: functional, organism-based; conditions: Macaca fascicularis
[12] = Clearance in cynomolgus monkey at 0.1 mg/kg, iv or 1 mg/kg, po administered as cassette dose by LC-MS/MS analysis; format: ADME, organism-based, Macaca fascicularis; conditions: in vivo
[13] = AUC in cynomolgus monkey at 0.1 mg/kg, iv administered as cassette dose by LC-MS/MS analysis; format: ADME, organism-based, Macaca fascicularis; conditions: in vivo
[14] = Tmax in cynomolgus monkey at 0.1 mg/kg, iv or 1 mg/kg, po administered as cassette dose by LC-MS/MS analysis; format: ADME, organism-based, Macaca fascicularis; conditions: in vivo
[15] = Oral bioavailability in cynomolgus monkey at 1 mg/kg administered as cassette dose by LC-MS/MS analysis; format: ADME, organism-based, Macaca fascicularis; conditions: in vivo
Renin [16] = biological target: T2, Renin (Rattus norvegicus, UniProt P08424)
T2 sequence (P08424 whole entry): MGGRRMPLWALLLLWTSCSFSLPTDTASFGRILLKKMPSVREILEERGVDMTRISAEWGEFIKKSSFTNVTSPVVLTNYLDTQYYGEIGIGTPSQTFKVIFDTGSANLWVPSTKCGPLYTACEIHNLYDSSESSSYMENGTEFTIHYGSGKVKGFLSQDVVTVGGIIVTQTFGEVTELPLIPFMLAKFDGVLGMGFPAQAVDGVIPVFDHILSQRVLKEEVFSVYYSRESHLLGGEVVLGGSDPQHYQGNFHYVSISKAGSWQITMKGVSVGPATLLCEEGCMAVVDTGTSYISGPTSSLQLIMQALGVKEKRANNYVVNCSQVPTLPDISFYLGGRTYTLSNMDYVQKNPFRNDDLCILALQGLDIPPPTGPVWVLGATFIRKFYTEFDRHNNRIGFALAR
Description: Inhibition of renin in rat plasma

[17] = Cmax in cynomolgus monkey at 0.1 mg/kg, iv or 1 mg/kg, po administered as cassette dose by LC-MS/MS analysis; format: ADME, organism-based, Macaca fascicularis; conditions: in vivo
Renin [18] = biological target: T3, Renin (Macaca mulatta, UniProt Q6DLW5)
T3 sequence (Q6DLW5 whole entry): T1 sequence (P00797 whole entry) with T68A, I214L, S235A, Q270P, R406H
Description: Inhibition of renin in monkey plasma

Cynomolgus monkey [19] = conditions: Macaca fascicularis; Plasma; 5 to 15 mg/kg
Cynomolgus monkey [20] = conditions: Macaca fascicularis; Plasma; 15 mg/kg

SMILES | clearance (in vivo [1]) | IC50 (Renin [2]) | IC50 (Renin [3]) | bioavailability (in vivo [4]) | IC50 (Renin [5]) | logD (physchem) | Papp at 3 h (in vitro) | AUC (in vivo [6]) | AUC (in vivo [7]) | also measured
COCCCCn1c(C(=O)N(CC(C)C)[C@@H]2CNC[C@H](C(=O)N3CCOCC3)C2)nnc1-c1ccccc1 | 112 mL/min/kg | 1.8 nM | 1.2 nM | < 1% | 1.4 nM | 1.79 | 11.6 ×10⁻⁶ cm/s | 15.3 ng·h/mL | – | –
CC(C)CN(C(=O)c1nc2ccccc2n1C)[C@@H]1CNC[C@H](C(=O)N2CCOCC2)C1 | 38.9 mL/min/kg | 0.66 nM | 2.9 nM | 17% | 0.63 nM | 1.71 | 27.4 ×10⁻⁶ cm/s | 43.9 ng·h/mL | 74.2 ng·h/mL | –
COCCCCn1c(C(=O)N(CC(C)C)[C@@H]2CNC[C@H](C(=O)N3CCOCC3)C2)cnc1-c1ccccc1 | 96.7 mL/min/kg | 3.3 nM | 2.8 nM | < 1% | 4.4 nM | 2.03 | 7.2 ×10⁻⁶ cm/s | 17.6 ng·h/mL | – | –
COCCCNc1nc(C(C)(C)C)ncc1C(=O)N(CC(C)C)[C@@H]1CNC[C@H](C(=O)N2CCOCC2)C1 | 121 mL/min/kg | – | – | < 1% | – | 2.99 | 39 ×10⁻⁶ cm/s | 14.1 ng·h/mL | – | Stability (Rattus norvegicus [8]): Stable
COCCCCn1c(C(=O)N(CC(C)C)[C@@H]2CNC[C@H](C(=O)N3CCOCC3)C2)ccc1-c1ccccc1 | 49.5 mL/min/kg | 1.4 nM | 3.4 nM | 5.4% | 0.16 nM | 3.08 | 21.7 ×10⁻⁶ cm/s | 34.6 ng·h/mL | 18.5 ng·h/mL | –
COCCCCn1c(C(=O)N(CC(C)C)[C@H]2CCCNC2)nc2ccccc21 | 33 mL/min/kg | 1.6 nM | 9.1 nM | 12% | 0.9 nM | 2 | 32.4 ×10⁻⁶ cm/s | 52.1 ng·h/mL | 59.7 ng·h/mL | –
CC(C)CN(C(=O)c1nc2ccccc2[nH]1)[C@@H]1CNC[C@H](C(=O)N2CCOCC2)C1 | 34.2 mL/min/kg | 0.59 nM | 4 nM | 8.2% | 0.76 nM | 1.74 | 6 ×10⁻⁶ cm/s | 50.7 ng·h/mL | 41.7 ng·h/mL | –
COCCCCn1nc(-c2ccccc2)cc1C(=O)N(CC(C)C)[C@@H]1CNC[C@H](C(=O)N2CCOCC2)C1 | – | > 100 nM | – | – | > 100 nM | 2.68 | – | – | – | –
COCCCCn1c(C(=O)N(CC(C)C)[C@@H]2CNC[C@H](CO)C2)nc2ccccc21 | 15.5 mL/min/kg | 0.32 nM | 1.5 nM | 9.6% | 0.28 nM | 1.77 | 8.2 ×10⁻⁶ cm/s | 108 ng·h/mL | 103 ng·h/mL | –
COCCCCc1c(C(=O)N(CC(C)C)[C@@H]2CNC[C@H](C(=O)N3CCOCC3)C2)nnn1-c1ccccc1 | 92.4 mL/min/kg | 0.65 nM | 0.4 nM | 1.9% | 1 nM | 1.94 | 36.9 ×10⁻⁶ cm/s | 18.4 ng·h/mL | 3.5 ng·h/mL | –
CCCCCCc1nc(C(C)(C)C)ncc1C(=O)N(CC(C)C)[C@@H]1CNC[C@H](C(=O)N2CCOCC2)C1 | – | – | – | – | – | 4.77 | 43.5 ×10⁻⁶ cm/s | 42 ng·h/mL | – | AUC (Rattus norvegicus [9]): 20.9 ng·h/mL
COCCCCn1c(C(=O)N(CC(C)C)[C@@H]2CNC[C@H](C(=O)N3CCOCC3)C2)nc2ccccc21 | 25.9 mL/min/kg | – | – | 14% | – | 2.11 | 34.5 ×10⁻⁶ cm/s | 68 ng·h/mL | 92.2 ng·h/mL | AUC [10]: 323 ng·h/mL; inhibition (Cynomolgus monkey [11]): Dose-dependent effect; clearance [12]: 14.2 mL/min/kg; AUC [13]: 128 ng·h/mL; Tmax [14]: 1.67 h; bioavailability [15]: 25%; IC50 (Renin [16]): 310 nM; Cmax [17]: 29.1 ng/mL; IC50 (Renin [18]): 1.5 nM
COCCCCc1c(C(=O)N(CC(C)C)[C@@H]2CNC[C@H](C(=O)N3CCOCC3)C2)ncn1-c1ccccc1 | 127 mL/min/kg | 1.1 nM | 1.2 nM | < 1% | 0.83 nM | 1.84 | 7.8 ×10⁻⁶ cm/s | 13.3 ng·h/mL | – | –
CCn1c(C(=O)N(CC(C)C)[C@@H]2CNC[C@H](CO)C2)nc2ccccc21 | – | 21 nM | > 10 nM | – | 16 nM | 1.73 | 5.5 ×10⁻⁶ cm/s | – | – | –
COCCCCn1nc(C(C)(C)C)cc1C(=O)N(CC(C)C)[C@@H]1CNC[C@H](C(=O)N2CCOCC2)C1 | – | 3.6 nM | – | – | 2 nM | 2.73 | – | – | – | –
COCCCOc1cc(C[C@@H](C[C@H](N)[C@@H](O)C[C@H](C(=O)NCC(C)(C)C(N)=O)C(C)C)C(C)C)ccc1OC | – | – | – | – | – | – | – | – | – | AUC [10]: 25.9 ng·h/mL; clearance [12]: 3.37 mL/min/kg; inhibition (Cynomolgus monkey [19]): Active; inhibition (Cynomolgus monkey [20]): Active; AUC [13]: 501 ng·h/mL; Tmax [14]: 3.33 h; bioavailability [15]: 0.6%; Cmax [17]: 3.5 ng/mL
COCCCCn1c(C(=O)N(CC(C)C)[C@@H]2CNC[C@H](C(C)(C)O)C2)nc2ccccc21 | – | 1.5 nM | 2.6 nM | – | 0.72 nM | 1.98 | 20.2 ×10⁻⁶ cm/s | – | – | –
COCCCOc1nc(C(C)(C)C)ncc1C(=O)N(CC(C)C)[C@@H]1CNC[C@H](C(=O)N2CCOCC2)C1 | – | > 100 nM | – | – | > 100 nM | 2.81 | 27.2 ×10⁻⁶ cm/s | – | – | –
COCCCCc1c(C(=O)N(CC(C)C)[C@@H]2CNC[C@H](C(=O)N3CCOCC3)C2)cnn1-c1ccccc1 | 80.4 mL/min/kg | 1.2 nM | 1.3 nM | 0.3% | 1.1 nM | 1.78 | 7.8 ×10⁻⁶ cm/s | 20.8 ng·h/mL | 0.7 ng·h/mL | –
CCCCCNc1nc(C(C)(C)C)ncc1C(=O)N(CC(C)C)[C@@H]1CNC[C@H](C(=O)N2CCOCC2)C1 | 62.4 mL/min/kg | 0.64 nM | 5.4 nM | < 1% | 0.2 nM | 4.45 | 25.2 ×10⁻⁶ cm/s | 27.3 ng·h/mL | – | –
COCCCCn1c(C(=O)N(CC(C)C)[C@@H]2CNC[C@H](C(=O)N3CCOCC3)C2)cnc1C(C)(C)C | – | 35 nM | – | – | 48 nM | 2.12 | – | – | – | –
CCn1c(C(=O)N(CC(C)C)[C@@H]2CNC[C@H](C(=O)N3CCOCC3)C2)nc2ccccc21 | 38.5 mL/min/kg | 0.89 nM | 1.3 nM | 14% | 0.66 nM | 1.79 | 24.2 ×10⁻⁶ cm/s | 43.4 ng·h/mL | 58.9 ng·h/mL | –
COCCCCc1c(C(=O)N(CC(C)C)[C@@H]2CNC[C@H](C(=O)N3CCOCC3)C2)nc2ccccn12 | 39 mL/min/kg | 2.1 nM | 1.1 nM | 2.2% | 1.6 nM | 1.54 | 6.3 ×10⁻⁶ cm/s | 43.5 ng·h/mL | 9.5 ng·h/mL | –
COCCCCc1c(C(=O)N(CC(C)C)[C@@H]2CNC[C@H](C(=O)N3CCOCC3)C2)nc2n1CCCC2 | – | 2.7 nM | 3.3 nM | – | 2.2 nM | – | – | – | – | –
